One compound from US10905679B2, “TRPM8 receptor agonist compounds and uses thereof” (UNIVERSIDAD MIGUEL HERNANDEZ DE ELCHE, priority 2016, dated 2021) can be followed below.

Test [1] relates to TRPM8, TRPV1 and TRPA1 channels. Description: Specificity by Ca2+ fluorescence microscopy in mouse dorsal root ganglion (DRG) neurons. It is filed as cell-based. Particulars: Fluo-4 AM fluorescence, FIG. 1. How it is done: Neurons obtained from a mouse dorsal root ganglion (DRG) were used to determine the specificity of the TZM-7 compound. These cells constitutively express the TRPM8, TRPV1 and TRPA1 channels, among others (the TRPV1 and TRPA1 channels are channels of the same family as the TRPM8 channel and are permeable to calcium). The intracellular Ca^2+ concentration was measured using fluorescence microscopy in order to view the activity of these channels. The cells were seeded with a density of 250,000 cells/well on round glass cover slips (18 mm diameter, […]) in 12-well plates (Costar) and cultured in Pure-EMEM during 3 days immediately before the Ca^2+ experiments. […] The cells that were not sensitive to the application of high potassium concentration were not analysed. […] The fluorescence measurements were taken using an Axiovert 200 inverted microscope from Zeiss (Oberkochen, Germany) coupled with an ORCA-ER CCD camera (Hamamatsu Photonics, Bridgewater, N.J.) and observed through a 10× magnification air lens. The Fluo-4 AM fluorescent probe was excited at 500 nm using a Lambda-10-2 filter wheel (Sutter Instruments, Novato, Calif.) and the emission fluorescence was filtered with a 535 nm longpass filter. […]

The next test deals with T1, TRPM8 (Homo sapiens, UniProt Q7Z2W7).
T1 construct: expressed in transfected cells
T1 sequence (Q7Z2W7 whole entry): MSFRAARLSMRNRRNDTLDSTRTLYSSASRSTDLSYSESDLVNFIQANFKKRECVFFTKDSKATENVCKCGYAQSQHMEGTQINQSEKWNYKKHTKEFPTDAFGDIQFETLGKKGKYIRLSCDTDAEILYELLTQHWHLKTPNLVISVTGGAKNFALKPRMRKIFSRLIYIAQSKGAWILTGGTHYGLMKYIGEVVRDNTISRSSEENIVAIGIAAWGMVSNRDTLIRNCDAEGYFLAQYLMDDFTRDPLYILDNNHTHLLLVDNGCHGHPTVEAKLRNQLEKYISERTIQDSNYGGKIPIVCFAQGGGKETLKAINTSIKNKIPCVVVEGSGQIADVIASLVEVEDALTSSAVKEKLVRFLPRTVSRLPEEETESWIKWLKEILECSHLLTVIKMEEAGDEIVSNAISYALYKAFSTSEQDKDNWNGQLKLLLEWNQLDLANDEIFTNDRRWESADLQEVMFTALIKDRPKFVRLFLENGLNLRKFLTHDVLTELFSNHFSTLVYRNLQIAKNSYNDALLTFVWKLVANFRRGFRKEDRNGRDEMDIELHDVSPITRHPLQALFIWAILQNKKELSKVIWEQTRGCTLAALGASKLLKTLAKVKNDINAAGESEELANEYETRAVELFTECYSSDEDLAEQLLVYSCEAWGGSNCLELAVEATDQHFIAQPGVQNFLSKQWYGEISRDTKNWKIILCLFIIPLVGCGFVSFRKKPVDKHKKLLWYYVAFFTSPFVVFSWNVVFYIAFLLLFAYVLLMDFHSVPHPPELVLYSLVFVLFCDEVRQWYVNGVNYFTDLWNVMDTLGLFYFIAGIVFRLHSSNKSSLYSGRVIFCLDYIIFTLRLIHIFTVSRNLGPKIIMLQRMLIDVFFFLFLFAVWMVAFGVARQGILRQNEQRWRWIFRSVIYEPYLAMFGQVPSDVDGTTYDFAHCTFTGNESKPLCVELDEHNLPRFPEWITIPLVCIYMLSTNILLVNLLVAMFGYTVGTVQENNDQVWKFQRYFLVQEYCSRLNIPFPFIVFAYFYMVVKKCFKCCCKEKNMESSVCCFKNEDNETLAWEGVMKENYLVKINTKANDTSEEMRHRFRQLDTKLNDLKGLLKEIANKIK
Description: Ca2+ fluorimetry assay in CHO cell line stably expressing TRPM8. It is filed as cell-based. The note with it: CHO cells stably expressing TRPM8. Here is the method: The cells were cultured in monolayer in EMEM medium (Earle's minimum essential medium with Earle's salts, Invitrogen) supplemented with 10% foetal bovine serum (FBS), 2 mM L-glutamine, 1% penicillin-streptomycin solution and […] of the Geneticin antibiotic (Sigma) and kept at 37° C. in a humidified atmosphere with 5% of CO2. Ca^2+ fluorimetry assays were carried out in order to determine the efficacy of the compounds on the TRPM8 channels. The cells were seeded in 96-well plates with a density of 25,000 cells per well. Three days after seeding, the medium was removed and 100 μl of the Fluo-4NW fluorescent probe from Invitrogen was added with a concentration of 5 μM in the presence of 0.02% pluronic acid; after 60 minutes of incubation at 37° C. in a humidified atmosphere with 5% of CO2, the fluorescence was measured in a microplate reader (POLARstar Omega) with a configuration of 485 nm for the excitation and 520 nm for the emission, during 20 cycles. […] In the wells that were used as negative controls, 1 μl of AMTB [N-(3-aminopropyl)-2-[(3-methylphenyl)methoxy]-N-(2-thienylmethyl)benzamide] was added to obtain a final concentration of 10 μM, to block the TRPM8 channels.
The amplitudes of the Ca^2+ increases, caused by the stimulation of the cells with the compounds, were measured by subtracting the basal fluorescence signal (mean intensity obtained before adding the compound) from the fluorescence peak obtained after applying the compounds. The obtained results were adjusted to a sigmoid function using the software suite of the GraphPad Prism computer program.

In a further test the test system is guinea pig. Description: In vivo tear secretion measured using phenol red threads after ocular instillation. The note with it: 10 μM, phenol red thread 30 seconds, p<0.05, comparable to menthol at 200 μM, FIG. 2. The text has this:
The in vivo activity of the selected TRPM8 activating compounds (TZM-7) has been assessed in an animal model following the protocol described in Acosta M C et al., Invest Ophthalmol Vis Sci 2014 (Corneal sensory nerve activity in an experimental model of UV keratitis. Acosta M et al., Invest Ophthalmol Vis Sci May 1; 55(6):3403-12). […] Tear secretion can be measured using phenol red threads (Zone-Quick, Menicon, Nagoya, Japan) that are applied to the nasal edge of the lower eyelid for 30 seconds (after that time, the distance of the red-dyed thread is measured in mm).

For `COc1cc(OC)cc(-c2cn([C@@H]3C[C@H](C)CC[C@H]3C(C)C)nn2)c1` [TZM-7, 4-(3,5-dimethoxyphenyl)-1-((1R,2S,5R)-2-isopropyl-5-methylcyclohexyl)-1H-1,2,3-triazole], in test [1], the “specificity to activate TRPM8 channels compared with other channels (TRPV1 and TRPA1)” value is recorded as “high specificity”. Also, the activation at 10 µM on TRPM8 (10 μM, Fluo-4NW fluorescence) turned out to be 78.5 ± 30.6%. The compound also had an EC50 on TRPM8 (concentrations 0.1, 1, 10 and 100 μM, sigmoid fit) of 2910 ± 210 nM. In the test on guinea pig, the “rate of lachrymation (tear secretion)” value is listed as “significantly increases the rate of lachrymation”.
